The conditions of data set [1]: cited from earlier work.
Another data set concerns C57BL ksj (db/db). As to conditions: hereditary obese diabetic mouse C57BL ksj (db/db); cited from earlier work.
The conditions of data set [2]: cited from earlier work. The source holds these as a separate data set.
Data set [3] relates to ICR male mice. Description: Mouse serum cholesterol lowering action. The data set is classed as in vivo. Conditions: one week; for Total Cholesterol in Serum: ICR mice; for Rate of Change (total cholesterol in serum): vs control. The method, then:
Thirty 5-week-old ICR male mice were bred by allowing mouse standard feed and water ad libitum. The mice were randomly classified into three groups, and one group was taken as a control group to which no drug was administered, and feed containing 0.1% of 4-O-methylasco-chlorin diethylacetal (MAC-DEA) and feed containing 0.05% of MAC-DEA were given to the other two groups, respectively. The body weight, the intake of feed and the amount of drinking water were measured every other day. One week after giving feed, blood was collected and the total cholesterol in serum and the neutral fat were determined.

Another data set deals with db/db mice. Description: Action of MAC-DEA on db/db mouse. Conditions: for Blood Sugar / Serum Insulin / Serum Neutral Fat: db/db mice. The data set is classed as in vivo. How it is done:
Eighteen 7-week-old male db/db mice were bred for one week by allowing mouse standard feed and water ad libitum. The mice were randomly classified into three groups of six mice and each group was housed in a urine collection rat cage and the intake of feed, the amount of drinking water, the amount of urine and the amount of urine sugar excreted were determined everyday. Feed CE-2 was given to the first group as a control group, and feed CE-2 mixed with 0.05% of 4-O-methylascochlorin diethylacetal (MAC-DEA) and feed CE-2 mixed with 0.1% of MAC-DEA were given to the second group and the third group, respectively. The mice were allowed feed and drinking water ad libitum and on the 7th day, blood was collected and the blood sugar, the serum neutral fat and the serum insulin were determined.

In data set [4] the test system is ICR male mice. The data set can be described thus: Syngeneic Langerhans islet transplanted streptozotocin diabetic mouse. It is filed as in vivo. How it is done:
Thirty 5-week-old ICR male mice were randomly classified into six groups and all mice were fed for one week by allowing mouse standard diet CE-2 (a product of Japan CLEA Co., Ltd.). Then, the mice in the first to third groups were intravenously injected with 50 mg/kg of streptozotocin and after one week, blood was collected from the orbit and the blood sugar and the serum insulin were determined to confirm the onset of insulin-dependent diabetes. Ten days after the streptozotocin injection, pancreatic Langerhans islets were removed from the age-matched normal mice in the fourth to sixth groups and 20 pancreatic Langerhans islets were subcutaneously transplanted in the back of each of the diabetic mice. Immediately after transplantation, diet CE-2 containing 0.1% of MAC-DE was given to the first group, diet CE-2 containing 0.05% of MAC-DE was given to the second group and CE-2 was given to the third group. The diabetic mice were further fed for 60 days, and blood was collected from the orbit and the blood sugar and the serum insulin were determined every 15 days.

Data set [5] relates to ICR male mice. The data set can be described thus: Fat accumulation in ICR mice fed 13 weeks. The data set is classed as in vivo, mouse. As to conditions: liver and epididymal adipose tissue. From the text: Thirty 5-week-old ICR male mice were randomly classified into three group of ten mice, and mouse standard diet CE-2 (a product of Japan CLEA Co., Ltd.) was given to the first group, and diet CE-2 containing 0.1% of 4-O-methylascochlorin diethylacetal (MAC-DE) was given to the second group and diet CE-2 containing 0.05% of MAC-DE was given to the third group and the mice were continued to be fed. […] After 13 weeks, the liver and the epididymal adipose tissue were removed from the mice and lipid was extracted by the Folch method and the triglyceride content was determined. As a result, the triglyceride content in the 0.05% MAC-DE group was reduced 27%, and the triglyceride content in the 0.1% MAC-DE group was reduced 35%. From this fact it would be understood that MAC-DE inhibits fat accumulation.

The subject of another data set is ddY male mice. Description: Internal fat accumulation in ddY mice fed 13 weeks. Conditions: livers and epididymal adipose tissues. The data set is classed as in vivo, mouse. From the text: Thirty 5-week-old ddY male mice were randomly classified into three groups of ten mice and fed for 13 weeks by allowing feed and water ad libidum. Meanwhile, the mouse standard diet CE-2 (a product of Japan CLEA Co., Ltd.) was given to the first group, and diet CE-2 containing 0.1% of 4-O-methylascochlorin diethylacetal (MAC-DE) was given to the second group of mice and diet CE-2 containing 0.05% of MAC-DE was given to the third group. […] After 13 weeks, the livers and the epididymal adipose tissues were removed from the mice and lipid was extracted by the Folch method and the triglyceride content was determined. As a result, the triglyceride content in the 0.05% MAC-DE group was reduced 27%, and the neutral fat content in the 0.1% MAC-DE group was reduced 35%. From this fact it would be understood that MAC-DE inhibits internal fat accumulation.

For data set [6], the system named is Ehrlich ascites carcinoma. The data set can be described thus: Inhibition of Ehrlich solid tumor. The data set is classed as in vivo, mouse. As to conditions: 7 days, 21st day. How it is done: Eighteen five-week-old ICR male mice were subcutaneously inoculated with 10^6 cells of Ehrlich ascites carcinoma […] and after 24 hours, and the mice were classified into three groups of six mice, and 4-O-methylascochlorin diethylacetal (MAC-DE) was suspended in 0.2% Tween-80 and 1 mg/kg and 4 mg/kg were orally administered to the first group and the second group twice a day at 9:00 and 20:00, respectively, and a MAC-DE-free Tween-80 aqueous solution was given to the third group as a control group. The administration was continued for successive 7 days and after completion of the administration, the mice were fed for two weeks. On the 21st day, a nodular tumor was removed from the mice and the body weight was determined and the effect of MAC-DE on the inhibition of tumor growth was examined.

Structures are written as SMILES. Some results are limits rather than exact numbers.

Consider `CC(C=CC1(C)C(C)CCC(=O)C1C)=CCc1c(O)c(C=O)c(C)c(Cl)c1OCC(=O)O` (centres unmarked) [AS-6, 4-O-carboxymethylasco-chlorin], for which, in data set [1] (pH of 7.2 to 7.7 in the small intestine), the “soluble in water at a concentration” value is recorded as at least 6%. In the data set on C57BL ksj (db/db), the carbohydrate metabolism result is on record as “improves in the carbohydrate metabolism”. The “toxicity to the liver” value in data set [2] (oral, blood concentration quickly rises) is “the toxicity to the liver is easily exhibited”. For the same molecule, the excretion result in [2] (orally administered to an animal) is on record as “quickly excreted”.

In the case of `COc1c(Cl)c(C)c(C=O)c(O)c1C/C=C(C)/C=C/[C@@]1(C)[C@H](C)CCC(=O)[C@@H]1C` [MAC, 4-O-Methylascochlorin], the solubility in water entry in data set [1] is reported as “less than 0.7 μg/ml”. Besides, the bioavailability entry in data set [2] (oral, animals) is on record as “very poor bioavailability”.

Regarding `CCOC(OCC)c1c(C)c(Cl)c(OC)c(C/C=C(C)/C=C/[C@@]2(C)[C@H](C)CCC(=O)[C@@H]2C)c1O` [MAC-DEA, 4-O-methylascochlorin diethylacetal], the “Total Cholesterol in Serum” value in the data set on ICR male mice [3] (0.05% in feed) was 97 mg/dL; in the data set on ICR male mice [3] (0.1% in feed), 90 mg/dL. For the same molecule, the “Rate of Change (total cholesterol in serum)” value in the data set on ICR male mice [3] (0.05% in feed) is on record as −17.8%; in the data set on ICR male mice [3] (0.1% in feed), −23.7%. For the same molecule, the “Blood Sugar” value worked out at 273 mg/dL in the data set on db/db mice (0.05% in feed CE-2, 7th day); 239 mg/dL with db/db mice (0.1% in feed CE-2, 7th day); 566 mg/dL with ICR male mice [4] (0.05% in diet CE-2, Day 0); 143 mg/dL with ICR male mice [4] (0.05% in diet CE-2, Day 15); 148 mg/dL with ICR male mice [4] (0.05% in diet CE-2, Day 30); 125 mg/dL in the data set with ICR male mice [4] (0.05% in diet CE-2, Day 45). Further, the “Blood Sugar” value with ICR male mice [4] (0.05% in diet CE-2, Day 60) was 118 mg/dL; in the data set with ICR male mice [4] (0.1% in diet CE-2, Day 0), 583 mg/dL; in the data set on ICR male mice [4] (0.1% in diet CE-2, Day 15) it was 121 mg/dL; with ICR male mice [4] (0.1% in diet CE-2, Day 30), 118 mg/dL; in the data set with ICR male mice [4] (0.1% in diet CE-2, Day 45) it was 119 mg/dL; with ICR male mice [4] (0.1% in diet CE-2, Day 60), 131 mg/dL. Besides, the “Serum Insulin” value was 175 ·U/ml in the data set on db/db mice (0.05% in feed CE-2, 7th day) and 132 ·U/ml in the data set with db/db mice (0.1% in feed CE-2, 7th day). The “Serum Neutral Fat” value was found to be 259 mg/dL with db/db mice (0.05% in feed CE-2, 7th day) and 248 mg/dL in the data set with db/db mice (0.1% in feed CE-2, 7th day). Further, the “Amount of Drinking Water” value is listed as 5.4 ml/mouse in the data set with db/db mice (0.05% in feed CE-2, db/db mice) and 3.2 ml/mouse with db/db mice (0.1% in feed CE-2, db/db mice). Also, the “Amount of Urine” value with db/db mice (0.05% in feed CE-2, db/db mice) worked out at 2.5 ml/mouse; with db/db mice (0.1% in feed CE-2, db/db mice), 1.7 ml/mouse. Also, the “Amount of Urine Sugar Excreted” value was found to be 47 mg/dL with db/db mice (0.05% in feed CE-2, db/db mice) and 10 mg/dL in the data set with db/db mice (0.1% in feed CE-2, db/db mice). For the same molecule, the Insulin with ICR male mice [4] (0.05% in diet CE-2, Day 0) is <2 ·U/ml; with ICR male mice [4] (0.05% in diet CE-2, Day 15), 5 ·U/ml; in the data set on ICR male mice [4] (0.05% in diet CE-2, Day 30), 5 ·U/ml; in the data set with ICR male mice [4] (0.05% in diet CE-2, Day 45) it was 6 ·U/ml; in the data set with ICR male mice [4] (0.05% in diet CE-2, Day 60) it was 6 ·U/ml; with ICR male mice [4] (0.1% in diet CE-2, Day 0) it was <2 ·U/ml. The Insulin was 5 ·U/ml in the data set on ICR male mice [4] (0.1% in diet CE-2, Day 15); 6 ·U/ml in the data set on ICR male mice [4] (0.1% in diet CE-2, Day 30); 6 ·U/ml with ICR male mice [4] (0.1% in diet CE-2, Day 45); 6 ·U/ml with ICR male mice [4] (0.1% in diet CE-2, Day 60). The “triglyceride content, reduction” value with ICR male mice [5] (0.05% in diet) came to 27%; with ICR male mice [5] (0.1% in diet), 35%; in the data set with ddY male mice (0.05% in diet) it was 27%. The “neutral fat content, reduction” value with ddY male mice (0.1% in diet) is 35%. The “Inhibition Ratio (tumor)” value in [6] (1 mg/kg oral twice a day) is recorded as 81%; in [6] (4 mg/kg oral twice a day), 96%. Moreover, the “Weight of Tumor” value in [6] (1 mg/kg oral twice a day) worked out at 0.25 g/mouse; in [6] (4 mg/kg oral twice a day) it was 0.06 g/mouse.

(Values after patent US7432306B2, “Method for preparing novel transcription factors and use” (NRL Pharma, Inc., priority 2005, dated 2008).)
